Experimental data published in US9902696B2, “1,4-substituted piperidine derivatives” (Cephalon, Inc., priority 2015, dated 2018).
Where a name gives a salt, the structure may show the parent alone. Read-outs that look alike come from different tables or passages of the source.

How the values were obtained:
[1] = target: T1, recombinant human baculovirus-expressed GST-tagged FASN (Homo sapiens, UniProt P49327); assay: FASN enzyme activity assay, fluorescence-based detection of CoA with CPM; format: biochemical; settings: 5 nM FASN, 150 μM NADPH, 10 μM acetyl-CoA, 25 μM malonyl-CoA, 90 minutes incubation
T1 construct: GST
T1 sequence (P49327 whole entry): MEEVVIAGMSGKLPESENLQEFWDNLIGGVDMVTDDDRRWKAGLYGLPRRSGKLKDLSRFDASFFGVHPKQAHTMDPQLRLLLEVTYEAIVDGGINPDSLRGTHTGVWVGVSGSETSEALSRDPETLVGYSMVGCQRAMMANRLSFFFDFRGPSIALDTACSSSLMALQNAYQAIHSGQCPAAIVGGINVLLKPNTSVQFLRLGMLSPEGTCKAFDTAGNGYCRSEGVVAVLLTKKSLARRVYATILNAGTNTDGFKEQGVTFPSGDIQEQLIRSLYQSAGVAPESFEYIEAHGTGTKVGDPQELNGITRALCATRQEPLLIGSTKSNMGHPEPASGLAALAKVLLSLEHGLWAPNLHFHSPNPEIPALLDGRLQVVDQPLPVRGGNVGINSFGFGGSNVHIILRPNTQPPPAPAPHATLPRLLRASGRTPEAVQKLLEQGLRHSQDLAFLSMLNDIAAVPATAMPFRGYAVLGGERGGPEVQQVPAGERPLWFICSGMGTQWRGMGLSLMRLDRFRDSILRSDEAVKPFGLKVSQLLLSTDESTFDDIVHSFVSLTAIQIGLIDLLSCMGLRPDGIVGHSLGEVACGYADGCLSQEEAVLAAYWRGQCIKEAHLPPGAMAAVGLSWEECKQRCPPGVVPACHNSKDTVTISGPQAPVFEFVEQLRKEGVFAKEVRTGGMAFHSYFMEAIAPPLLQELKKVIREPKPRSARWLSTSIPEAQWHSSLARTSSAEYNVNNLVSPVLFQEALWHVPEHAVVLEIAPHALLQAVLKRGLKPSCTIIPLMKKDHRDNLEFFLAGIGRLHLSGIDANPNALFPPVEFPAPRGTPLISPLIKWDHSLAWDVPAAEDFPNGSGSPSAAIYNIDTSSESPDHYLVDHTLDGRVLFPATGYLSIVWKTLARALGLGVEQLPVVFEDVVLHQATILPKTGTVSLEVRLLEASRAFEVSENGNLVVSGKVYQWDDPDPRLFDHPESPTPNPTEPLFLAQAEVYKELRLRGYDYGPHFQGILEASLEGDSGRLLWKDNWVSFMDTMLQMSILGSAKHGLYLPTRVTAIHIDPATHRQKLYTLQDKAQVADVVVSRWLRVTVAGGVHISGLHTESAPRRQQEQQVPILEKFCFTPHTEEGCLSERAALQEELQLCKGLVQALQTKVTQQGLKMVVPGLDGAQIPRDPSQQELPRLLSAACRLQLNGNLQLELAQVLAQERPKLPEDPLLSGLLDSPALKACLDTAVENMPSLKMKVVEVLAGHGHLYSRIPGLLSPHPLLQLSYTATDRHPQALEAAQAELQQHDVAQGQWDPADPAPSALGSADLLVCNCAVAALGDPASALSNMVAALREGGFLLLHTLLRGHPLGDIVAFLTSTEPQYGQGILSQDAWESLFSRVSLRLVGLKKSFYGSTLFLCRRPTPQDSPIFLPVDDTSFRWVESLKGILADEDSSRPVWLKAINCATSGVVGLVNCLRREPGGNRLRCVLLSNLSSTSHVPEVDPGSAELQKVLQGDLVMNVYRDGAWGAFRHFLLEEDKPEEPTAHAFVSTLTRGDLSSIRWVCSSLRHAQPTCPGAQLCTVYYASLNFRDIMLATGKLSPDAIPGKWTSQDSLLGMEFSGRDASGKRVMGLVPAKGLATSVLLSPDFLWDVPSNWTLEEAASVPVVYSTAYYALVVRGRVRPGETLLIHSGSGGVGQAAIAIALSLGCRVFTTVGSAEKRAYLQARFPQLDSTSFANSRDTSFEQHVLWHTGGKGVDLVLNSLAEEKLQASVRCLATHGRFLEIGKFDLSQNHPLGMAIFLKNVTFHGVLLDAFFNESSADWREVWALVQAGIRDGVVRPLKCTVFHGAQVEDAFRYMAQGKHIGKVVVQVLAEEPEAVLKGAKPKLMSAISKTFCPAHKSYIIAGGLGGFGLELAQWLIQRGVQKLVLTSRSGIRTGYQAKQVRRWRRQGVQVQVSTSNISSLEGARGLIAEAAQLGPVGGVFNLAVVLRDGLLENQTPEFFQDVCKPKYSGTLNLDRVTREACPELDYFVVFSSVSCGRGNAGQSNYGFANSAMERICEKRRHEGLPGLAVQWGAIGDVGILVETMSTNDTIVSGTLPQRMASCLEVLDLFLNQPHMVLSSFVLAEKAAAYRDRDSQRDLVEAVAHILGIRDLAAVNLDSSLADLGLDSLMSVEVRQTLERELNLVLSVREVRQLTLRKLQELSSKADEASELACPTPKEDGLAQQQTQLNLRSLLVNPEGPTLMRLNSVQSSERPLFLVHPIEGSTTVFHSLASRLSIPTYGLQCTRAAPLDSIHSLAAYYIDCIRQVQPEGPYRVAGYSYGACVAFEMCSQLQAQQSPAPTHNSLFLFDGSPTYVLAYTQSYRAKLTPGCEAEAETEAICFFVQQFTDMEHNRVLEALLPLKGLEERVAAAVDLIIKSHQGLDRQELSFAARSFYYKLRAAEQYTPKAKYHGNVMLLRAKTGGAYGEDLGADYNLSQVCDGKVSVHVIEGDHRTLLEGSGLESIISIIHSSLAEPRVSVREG
Summary of the method: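 Human GST-tagged FASN, baculovirus-expressed (5 nM), in 50 mM HEPES pH 7.5 with 150 μM NADPH, 10 μM acetyl-CoA, 25 μM malonyl-CoA, 0.5% DMSO; malonyl-CoA-started, 90 min. Released CoA detected with CPM (50 μM dilution), 30 min, fluorescence ex 390/em 530. IC50 from variable-slope sigmoidal fit of % inhibition versus log concentration.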

[2] = read-out: IC50 data for Compounds of Formulae I-V/V(a): Activity
[3] = read-out: IC50 data for Additional Compounds of Formulae I-V(a): Activity

## CCC(=O)N1CC(Oc2ccc(-c3cnc4ccccc4c3)cc2)C1 [Example 338, 1-(3-(4-(Quinolin-3-yl)phenoxy)azetidin-1-yl)propan-1-one]
[1]; [2]
  IC50: 100 to 999 nM
other
  melting point: 172 °C

## O=C(C1CC1)N1CCC(Oc2ncc(-c3cnc4ccccc4c3)cn2)CC1 (as salt: HCl) [Example 139, Cyclopropyl-[4-(5-quinolin-3-yl-pyrimidin-2-yloxy)-piperidin-1-yl]-methanone, 2HCl]
other
  melting point: 150 to 153 °C

## CCNC(=O)N1CCC(Oc2ccc(-c3ccc4nccn4c3Cl)cc2)CC1 [Example 564, 4-[4-(5-Chloroimidazo[1,2-a]pyridin-6-yl)phenoxy]-N-ethyl-piperidine-1-carboxamide]
[1]; [3]
  IC50: 1000 to 10000 nM
other
  melting point: 189 to 193 °C

## CCCONC(=O)N1CCC(Oc2ccc(-c3ccc4cccnc4c3C)cc2)CC1 [Example 574, 4-[4-(8-Methyl-7-quinolyl)phenoxy]-N-propoxy-piperidine-1-carboxamide]
[1]; [3]
  IC50: 1 to 99 nM
other
  melting point: 75 °C

## O=C(C1CCC1)N1CCC(Oc2ccc(-c3cnc4ccccc4c3)cc2)CC1 (as salt: HCl) [Example 101, Cyclobutyl-[4-(4-quinolin-3-yl-phenoxy)-piperidin-1-yl]-methanone,HCl]
other
  melting point: 164 to 166 °C

## CCC(=O)N1CCC(Sc2ccc(-c3cncc4ccccc34)cc2)CC1 (as salt: HCl) [Example 519, 1-(4-((4-(Isoquinolin-4-yl)phenyl)thio)piperidin-1-yl)propan-1-one, HCl]
other
  melting point: 88 °C

## Cc1nccc2cc(-c3ccc(OC4CCN(C(=O)NOC(C)C)CC4)cc3)ccc12 [Example 583, N-Isopropoxy-4-[4-(1-methyl-6-isoquinolyl)phenoxy]piperidine-1-carboxamide]
[1]; [3]
  IC50: 1 to 99 nM
other
  melting point: 189 °C

## NC(=O)N1CCC(Oc2ccc(-c3ccc4nccn4c3Cl)cc2)CC1 [Example 577, 4-[4-(5-Chloroimidazo[1,2-a]pyridin-6-yl)phenoxy]piperidine-1-carboxamide]
[1]; [3]
  IC50: 100 to 999 nM
other
  melting point: 204 °C

## CCCNC(=O)N1CCC(Oc2ccc(-c3ccc4nccn4c3Cl)cc2)CC1 [Example 566, 4-[4-(5-Chloroimidazo[1,2-a]pyridin-6-yl)phenoxy]-N-propyl-piperidine-1-carboxamide]
[1]; [3]
  IC50: 1 to 99 nM
other
  melting point: 184 °C

## Cc1c(-c2ccc(OC3CCN(C(=O)NOC(C)C)CC3)cc2)cnc2ccccc12 [Example 588, N-Isopropoxy-4-[4-(4-methyl-3-quinolyl)phenoxy]piperidine-1-carboxamide]
[1]; [3]
  IC50: 1 to 99 nM
other
  melting point: 80 °C

## CCC(=O)N1CCC(Sc2ccc(-c3cnc4ccccc4c3)cc2)CC1 (as salt: HCl) [Example 518, 1-(4-((4-(Quinolin-3-yl)phenyl)thio)piperidin-1-yl)propan-1-one, HCl]
other
  melting point: 70 °C

## O=C(C1CC1)N1CCC(Oc2ccc(-c3ccc4cccnc4c3)nc2)CC1 (as salt: HCl) [Example 146, Cyclopropyl-[4-(6-quinolin-7-yl-pyridin-3-yloxy)-piperidin-1-yl]-methanone, 2HCl]
other
  melting point: 170 to 175 °C

## CCCONC(=O)N1CCC(Oc2ccc(-c3cnc4ccccc4c3C)cc2)CC1 [Example 589, 4-[4-(4-Methyl-3-quinolyl)phenoxy]-N-propoxy-piperidine-1-carboxamide]
[1]; [3]
  IC50: 1 to 99 nM
other
  melting point: 75 °C

## CCC(=O)N1CCC(Sc2ccc(-c3ccc4cnccc4c3)cc2)CC1 (as salt: HCl) [Example 517, 1-(4-((4-(Isoquinolin-6-yl)phenyl)thio)piperidin-1-yl)propan-1-one, HCl]
other
  melting point: 222 °C

## CC(C)CNC(=O)N1CCC(Oc2ccc(-c3ccc4nccn4c3Cl)cc2)CC1 [Example 565, 4-[4-(5-Chloroimidazo[1,2-a]pyridin-6-yl)phenoxy]-N-isobutyl-piperidine-1-carboxamide]
[1]; [3]
  IC50: 100 to 999 nM
other
  melting point: 201 °C

## CCC(=O)N1CCC(Oc2ccc(-c3cnc4ccccc4c3)cc2Cl)CC1 [Example 191, 1-[4-(2-Chloro-4-quinolin-3-yl-phenoxy)-piperidin-1-yl]-propan-1-one]
[1]; [2]
  IC50: 1000 to 10000 nM
other
  melting point: 183 to 185 °C

## CC(C)C(=O)N1CCC(Oc2ccc(-c3ccc4cccnc4c3)nc2)CC1 (as salt: HCl) [Example 145, 2-Methyl-1-[4-(6-quinolin-7-yl-pyridin-3-yloxy)-piperidin-1-yl]-propan-1-one, 2HCl]
other
  melting point: 170 to 179 °C

## CCC(=O)N1CCC(Oc2ccc(-c3cnc4ccccc4c3)nc2)CC1 (as salt: HCl) [Example 140, 1-[4-(6-Quinolin-3-yl-pyridin-3-yloxy)-piperidin-1-yl]-propan-1-one, 2HCl]
other
  melting point: 207 to 212 °C

## CCC(=O)N1CCC(Oc2ccc(-c3ccc4cccnc4c3)nc2)CC1 (as salt: HCl) [Example 144, 1-[4-(6-Quinolin-7-yl-pyridin-3-yloxy)-piperidin-1-yl]-propan-1-one, 2HCl]
other
  melting point: 90 to 96 °C

## O=C(C1CC1)N1CCC(Oc2ccc(-c3ccc4cnccc4c3)nc2)CC1 (as salt: HCl) [Example 149, Cyclopropyl-[4-(6-isoquinolin-6-yl-pyridin-3-yloxy)-piperidin-1-yl]-methanone, 2HCl]
other
  melting point: 136 to 146 °C

## CCC(=O)N1CC[C@@H](Oc2ccc(-c3cnc4ccccc4c3)cc2)C1 (as salt: HCl) [Example 345, (R)-1-(3-(4-(quinolin-3-yl)phenoxy)pyrrolidin-1-yl)propan-1-one, HCl]
other
  melting point: 51 °C

## CC(C)C(=O)N1CCC(Oc2ncc(-c3cnc4ccccc4c3)cn2)CC1 (as salt: HCl) [Example 138, 2-Methyl-1-[4-(5-quinolin-3-yl-pyrimidin-2-yloxy)-piperidin-1-yl]-propan-1-one, 2HCl]
other
  melting point: 124 to 130 °C

## CC(C)C(=O)N1CCC(Sc2ccc(-c3cnc4ccccc4c3)cc2)CC1 (as salt: HCl) [Example 522, 2-Methyl-1-(4-((4-(quinolin-3-yl)phenyl)thio)piperidin-1-yl)propan-1-one, HCl]
other
  melting point: 130 °C

## CC(C)C(=O)N1CCC(Sc2ccc(-c3cncc4ccccc34)cc2)CC1 (as salt: HCl) [Example 523, 1-(4-((4-(Isoquinolin-4-yl)phenyl)thio)piperidin-1-yl)-2-methylpropan-1-one HCl]
other
  melting point: 120 °C

## CC(C)C(=O)N1CCC(Sc2ccc(-c3ccc4cnccc4c3)cc2)CC1 (as salt: HCl) [Example 521, 1-(4-((4-(Isoquinolin-6-yl)phenyl)thio)piperidin-1-yl)-2-methylpropan-1-one HCl]
other
  melting point: 228 °C

## CCC(=O)N1CCC(Oc2ccc(-c3ccc4cnccc4c3)nc2)CC1 (as salt: HCl) [Example 147, 1-[4-(6-Isoquinolin-6-yl-pyridin-3-yloxy)-piperidin-1-yl]-propan-1-one, 2HCl]
other
  melting point: 236 to 245 °C

## CCC(=O)N1CC[C@H](Oc2ccc(-c3cnc4ccccc4c3)cc2)C1 (as salt: HCl) [Example 343, (S)-1-(3-(4-(Quinolin-3-yl)phenoxy)pyrrolidin-1-yl)propan-1-one, HCl]
other
  melting point: 60 °C

## O=C(C1CCCC1)N1CCC(Oc2ccc(-c3cnc4ccccc4c3)cc2)CC1 (as salt: HCl) [Example 102, Cyclopentyl-[4-(4-quinolin-3-yl-phenoxy)-piperidin-1-yl]-methanone, 2HCl]
other
  melting point: 145 to 147 °C

## O=C(C1CC1)N1CCC(Oc2ccc(-c3cnc4ccccc4c3)nc2)CC1 (as salt: HCl) [Example 142, Cyclopropyl-[4-(6-quinolin-3-yl-pyridin-3-yloxy)-piperidin-1-yl]-methanone, 2HCl]
other
  melting point: 230 to 234 °C

## O=C(C1CC1)N1CCC(Oc2ccc(-c3cnc4ccccc4c3)cc2)CC1 (as salt: HCl) [Example 100, Cyclopropyl-[4-(4-quinolin-3-yl-phenoxy)-piperidin-1-yl]-methanone,HCl]
other
  melting point: 170 to 173 °C

## CCC(=O)N1CCC(Sc2ccc(-c3ccc4cccnc4c3)cc2)CC1 (as salt: HCl) [Example 516, 1-(4-((4-(quinolin-7-yl)phenyl)thio)piperidin-1-yl)propan-1-one, HCl]
other
  melting point: 188 °C

## CC(C)C(=O)N1CCC(Oc2ccc(-c3ccc4cnccc4c3)nc2)CC1 (as salt: HCl) [Example 148, 1-[4-(6-Isoquinolin-6-yl-pyridin-3-yloxy)-piperidin-1-yl]-2-methyl-propan-1-one, 2HCl]
other
  melting point: 236 to 241 °C

## CC(C)C(=O)N1CCC(Oc2ccc(-c3cnc4ccccc4c3)nc2)CC1 (as salt: HCl) [Example 141, 2-Methyl-1-[4-(6-quinolin-3-yl-pyridin-3-yloxy)-piperidin-1-yl]-propan-1-one, 2HCl]
other
  melting point: 99 to 102 °C

## CC(C)C(=O)N1CCC(Sc2ccc(-c3ccc4cccnc4c3)cc2)CC1 (as salt: HCl) [Example 520]
other
  melting point: 120 °C

## CCC(=O)N1CC[C@@H](Oc2ccc(-c3ccc4cccnc4c3)cc2)C1 (as salt: HCl) [Example 344, (R)-1-(3-(4-(Quinolin-7-yl)phenoxy)pyrrolidin-1-yl)propan-1-one, HCl]
other
  melting point: 53 °C

## O=C([C@H]1CCCO1)N1CCC(Oc2ccc(-c3ccn4cnnc4c3)cc2)CC1 [Example 307, (R)-Tetrahydrofuran-2-yl-[4-(4-[1,2,4]triazolo[4,3-a]pyridin-7-yl-phenoxy)-piperidin-1-yl]-methanone]
[1]; [2]
  IC50: 100 to 999 nM

## Cc1c(-c2ccc(OC3CCN(C(=O)[C@@H](C)N)CC3)cc2)ccc2cccnc12 [Example 610, (2R)-2-Amino-1-[4-[4-(8-methyl-7-quinolyl)phenoxy]-1-piperidyl]propan-1-one, 2HCl]
[1]; [3]
  IC50: 1000 to 10000 nM
